In PubChem BioAssay (NCI):
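Assay format: 96-well plates, 48-hour exposure. Definition used: TGI = concentration required for complete inhibition of growth.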

Assays:
Assay in all cases: growth of human tumour cells (NCI), 48 h
[1] = tested on: 786-0 renal
[2] = tested on: A498 renal
[3] = tested on: A549 NSCLC
[4] = tested on: ACHN renal
[5] = tested on: CAKI-1 renal
[6] = tested on: CCRF-CEM leukemia
[7] = tested on: COLO 205 colon
[8] = tested on: DLD-1 colon
[9] = tested on: DMS 114 small cell lung
[10] = tested on: DMS 273 small cell lung
[11] = tested on: EKVX NSCLC
[12] = tested on: HCT-116 colon
[13] = tested on: HL-60(TB) leukemia
[14] = tested on: HOP-18 NSCLC
[15] = tested on: HOP-62 NSCLC
[16] = tested on: HOP-92 NSCLC
[17] = tested on: HT29 colon
[18] = tested on: IGROV1 ovarian
[19] = tested on: K-562 leukemia
[20] = tested on: KM12 colon
[21] = tested on: LOX IMVI melanoma
[22] = tested on: LXFL 529 NSCLC
[23] = tested on: M14 melanoma
[24] = tested on: M19-MEL melanoma
[25] = tested on: MALME-3M melanoma
[26] = tested on: MOLT-4 leukemia
[27] = tested on: NCI-H226 lung
[28] = tested on: NCI-H23 lung
[29] = tested on: NCI-H460 lung
[30] = tested on: NCI-H522 lung
[31] = tested on: OVCAR-3 ovarian
[32] = tested on: OVCAR-4 ovarian
[33] = tested on: OVCAR-5 ovarian
[34] = tested on: OVCAR-8 ovarian
[35] = tested on: RPMI-8226 leukemia
[36] = tested on: RXF 393 renal
[37] = tested on: RXF-631 renal
[38] = tested on: SF-268 CNS
[39] = tested on: SF-295 CNS
[40] = tested on: SF-539 CNS
[41] = tested on: SK-MEL-2 melanoma
[42] = tested on: SK-MEL-28 melanoma
[43] = tested on: SK-MEL-5 melanoma
[44] = tested on: SK-OV-3 ovarian
[45] = tested on: SN12C renal
[46] = tested on: SNB-19 CNS
[47] = tested on: SNB-75 CNS
[48] = tested on: SNB-78 CNS
[49] = tested on: SR leukemia
[50] = tested on: SW-620 colon
[51] = tested on: TK-10 renal
[52] = tested on: U251 CNS
[53] = tested on: UACC-257 melanoma
[54] = tested on: UACC-62 melanoma
[55] = tested on: UO-31 renal
[56] = tested on: XF 498 CNS
[57] = tested on: HCC-2998 colon
[58] = tested on: HCT-15 colon
[59] = tested on: KM20L2 colon

With CCCCCCCCCCC(O)CCCCCCC(=O)O (stereo unspecified) the TGI [1] was 93.3 µM, the TGI [2] was 46.1 µM and the TGI [3] was 54.7 µM. The TGI [4] was 54 µM, the TGI [5] was > 100 µM and the TGI [6] was 91.3 µM. The TGI [7] was 30 µM, the TGI [8] was 59.7 µM and the TGI [9] was 56.2 µM. The TGI [10] was 55.6 µM, the TGI [11] was > 100 µM and the TGI [12] was 33.3 µM. For the same compound, the TGI [13] was 25.6 µM, the TGI [14] was 63 µM and the TGI [15] was > 100 µM. It also gave a TGI [16] of 37.3 µM, a TGI [17] of 40.6 µM and a TGI [18] of 34.6 µM. For the same compound, the TGI [19] was 39.1 µM, the TGI [20] was 31.6 µM and the TGI [21] was 31.1 µM. For the same compound, the TGI [22] was 71 µM, the TGI [23] was 44.3 µM and the TGI [24] was > 100 µM. The TGI [25] was 59.5 µM, the TGI [26] was 34.5 µM and the TGI [27] was > 100 µM. The TGI [28] was > 100 µM, the TGI [29] was 32.4 µM and the TGI [30] was 62.5 µM. For the same compound, the TGI [31] was 45.3 µM, the TGI [32] was > 100 µM and the TGI [33] was > 100 µM. The TGI [34] was 31.1 µM, the TGI [35] was 28.2 µM and the TGI [36] was 98 µM. The TGI [37] was 39.1 µM, the TGI [38] was > 100 µM and the TGI [39] was 80.8 µM. For the same compound, the TGI [40] was 67.3 µM, the TGI [41] was > 100 µM and the TGI [42] was > 100 µM. The TGI [43] was 29.9 µM, the TGI [44] was > 100 µM and the TGI [45] was 50.7 µM. For the same compound, the TGI [46] was > 100 µM, the TGI [47] was > 100 µM and the TGI [48] was > 100 µM. The TGI [49] was 41.9 µM, the TGI [50] was 86.5 µM and the TGI [51] was > 100 µM. The TGI [52] was 45.8 µM, the TGI [53] was > 100 µM and the TGI [54] was 41.7 µM. The TGI [55] was > 100 µM and the TGI [56] was 88.9 µM.

With CCOc1ccc2nc(NC(=O)C(=O)C(C#N)CC(C)(C)C=O)sc2c1 (stereo unspecified) the TGI [1] was > 100 µM, the TGI [2] was > 100 µM and the TGI [3] was > 100 µM. For the same compound, the TGI [4] was > 100 µM, the TGI [5] was > 100 µM and the TGI [6] was 63.1 µM. The TGI [7] was > 100 µM, the TGI [8] was > 100 µM and the TGI [9] was > 100 µM. For the same compound, the TGI [10] was 51.5 µM, the TGI [11] was > 100 µM and the TGI [57] was > 100 µM. For the same compound, the TGI [12] was > 100 µM, the TGI [58] was > 100 µM and the TGI [13] was > 100 µM. The TGI [14] was > 100 µM, the TGI [15] was > 100 µM and the TGI [16] was > 100 µM. For the same compound, the TGI [17] was > 100 µM, the TGI [18] was > 100 µM and the TGI [19] was > 100 µM. For the same compound, the TGI [20] was > 100 µM, the TGI [59] was > 100 µM and the TGI [21] was > 100 µM. The TGI [22] was > 100 µM, the TGI [23] was > 100 µM and the TGI [24] was > 100 µM. For the same compound, the TGI [25] was > 100 µM, the TGI [26] was > 100 µM and the TGI [27] was > 100 µM. For the same compound, the TGI [28] was > 100 µM, the TGI [29] was > 100 µM and the TGI [30] was > 100 µM. The TGI [31] was > 100 µM, the TGI [32] was > 100 µM and the TGI [33] was > 100 µM. The TGI [34] was > 100 µM, the TGI [35] was > 100 µM and the TGI [36] was > 100 µM. The TGI [37] was > 100 µM, the TGI [38] was > 100 µM and the TGI [39] was > 100 µM. The TGI [40] was > 100 µM, the TGI [41] was > 100 µM and the TGI [42] was > 100 µM. For the same compound, the TGI [43] was > 100 µM, the TGI [44] was > 100 µM and the TGI [45] was > 100 µM. For the same compound, the TGI [46] was > 100 µM, the TGI [47] was > 100 µM and the TGI [48] was > 100 µM. For the same compound, the TGI [49] was 46 µM, the TGI [51] was > 100 µM and the TGI [52] was > 100 µM. For the same compound, the TGI [53] was > 100 µM, the TGI [54] was > 100 µM and the TGI [55] was > 100 µM. For the same compound, the TGI [56] was > 100 µM.

Work on Cn1ncc2c(Nc3ccc(Cl)cc3)c3ccccc3nc21 yielded a TGI [1] of 32.4 µM, a TGI [2] of 29.7 µM and a TGI [3] of 43.2 µM. It also gave a TGI [4] of 55.9 µM, a TGI [5] of 80.6 µM and a TGI [6] of 56.7 µM. It also gave a TGI [7] of 42.4 µM, a TGI [8] of 30.3 µM and a TGI [9] of 34.5 µM. For the same compound, the TGI [10] was 35.5 µM, the TGI [11] was > 10 µM and the TGI [57] was 39.7 µM. For the same compound, the TGI [12] was 26.4 µM, the TGI [58] was 40 µM and the TGI [13] was 73.6 µM. For the same compound, the TGI [14] was 69.5 µM, the TGI [15] was 31.9 µM and the TGI [16] was 39.1 µM. It also gave a TGI [17] of 27.1 µM, a TGI [18] of 54.7 µM and a TGI [19] of 56.7 µM. The TGI [20] was 40.9 µM, the TGI [21] was 32.7 µM and the TGI [22] was 34.7 µM. For the same compound, the TGI [23] was 28.3 µM, the TGI [24] was 37.2 µM and the TGI [25] was 39.7 µM. For the same compound, the TGI [26] was 63.2 µM, the TGI [27] was 35.4 µM and the TGI [28] was > 10 µM. It also gave a TGI [29] of 52.7 µM, a TGI [30] of 37.2 µM and a TGI [31] of 46.2 µM. For the same compound, the TGI [32] was 29.2 µM, the TGI [33] was 47.5 µM and the TGI [34] was 30.3 µM. The TGI [35] was 93.9 µM, the TGI [37] was 33.5 µM and the TGI [38] was 51.5 µM. It also gave a TGI [39] of 36 µM, a TGI [40] of 30.1 µM and a TGI [41] of 33.7 µM. For the same compound, the TGI [42] was 29.7 µM, the TGI [43] was 26.7 µM and the TGI [44] was 54.9 µM. It also gave a TGI [45] of 58.3 µM, a TGI [46] of 43.9 µM and a TGI [47] of 29.2 µM. The TGI [48] was 74.6 µM, the TGI [49] was > 100 µM and the TGI [50] was 39.1 µM. It also gave a TGI [51] of 77.3 µM, a TGI [52] of 29.3 µM and a TGI [53] of 31.7 µM. For the same compound, the TGI [54] was 31.6 µM, the TGI [55] was > 10 µM and the TGI [56] was > 10 µM.
